According to patent publication US11504379B2, “Amide compound, and Pin1 inhibitor, therapeutic agent for inflammatory diseases and therapeutic agent for cancer that use the same” (Hiroshima University, priority 2017, dated 2022):

Columns and labels:
[1] = tested on: mice with induction of colitis; conditions: oral administration; cited from earlier work
Pin1 = target: T1, Pin1 (Homo sapiens, UniProt Q13526); experiment: Cell-based Pin1 inhibition assay with AMPK phosphorylation level as index (293T cells); design: key: +++: a higher level of AMPK phosphorylation is promoted, as compared with C1; ++: a similar level of AMPK phosphorylation is promoted, as compared with C1; +: a lower level of AMPK phosphorylation is promoted, as compared with C1; −: no or almost no promotion is found in AMPK phosphorylation; conditions: compound at 100 μM for 30 minutes, then 10 mM 2-DG for one hour, pAMPK blot compared with C1
T1 construct: endogenous in cells; host or cells: 293T cells
Protocol: To evaluate the inhibitory activity of each compound synthesized in Example 1 against the function of Pin1, a cell-based assay was performed according to the method previously developed by the inventors (Yusuke Nakatsu et al., Journal of Biological Chemistry, 2015, Vol. 290, No. 40, pp. 24255-24266), in which the phosphorylation level of AMPK (AMP-activated protein kinase), a protein whose phosphorylation is inhibited by Pin1, was examined as an index.
Briefly, 293T cells were plated on a collagen-coated 24-well plate. Forty-eight hours later, each compound synthesized in the preceding example (at 100 μM) was added to the plate, and the plate was left to stand in an incubator for 30 minutes. Subsequently, 10 mM 2-DG was added to the plate, and one hour later, each sample was collected with a buffer containing mercaptoethanol and SDS.
SDS-PAGE and blotting were performed, and blocking was then performed with 3% BSA for 1 hour, according to conventional protocols. Subsequently, a pAMPK antibody (Cell Signaling; diluted 1:2000 in Can Get Signal Solution 1, Toyobo) as a primary antibody, and an HRP-linked anti rabbit IgG (GE Healthcare; diluted 1:4000 in Can Get Signal Solution 2, Toyobo) as a secondary antibody were allowed to react at ambient temperature for 1 hour prior to detection.
The inhibitory activity against the function of Pin1 was evaluated by comparing the inhibition levels between each compound and a known Pin1 inhibitor, C1, as indicated below: […]

DU145 cells = experiment: Cancer treatment study, DU145 tumors implanted in nude mice; type: in vivo, nude mice (BALB/c-slc-nu/nu mice); conditions: intraperitoneal 2.5 mg/kg/day, 5 times a week, 9 weeks, compared to control mice; for tumor size growth, first tumor (tumor volume ratio): FIG. 4 (A); for tumor size growth, second tumor (volume): FIG. 4 (B)
Protocol: An animal experiment was performed using mice transplanted with cancer cells to test the therapeutic effects of the compounds according to the present invention on cancer.
A first tumor (DU145 cells) with Matrigel plug was implanted in the middle of the upper back of nude mice (BALB/c-slc-nu/nu mice).
Five weeks after the first implantation, a second tumor (DU145 cells) was implanted in the middle of the left and right sides of the back of the nude mice.
No compound was administered to a group of mice to prepare control mice.
The volume of the second tumor was so small and not measurable at the beginning of administration of each compound. Therefore, the result from the second tumor is expressed in volume (mm^3), but not in ratio.

[2] = tested on: non-alcoholic steatohepatitis (NASH) model mice (HFDT); experiment: NASH treatment study in HFDT-fed NASH model mice; conditions: for increase in liver weight / blood ALT (GPT) value, index of liver inflammation: HFDT NASH mice, 8 weeks; for increase in liver weight: FIG. 1 (A); for blood ALT (GPT) value, index of liver inflammation: FIG. 1 (B)
Protocol: Animal experiments were performed using non-alcoholic steatohepatitis (NASH) model mice to test the compounds according to the present invention for the therapeutic effect on NASH.
NASH model mice (hereinafter referred to as “NASH mice”) were produced by feeding a high-fat diet containing trans fatty acids (HFDT) to individual male laboratory mice (C57BL/6J) for 8 weeks. […] In addition, a normal diet was given to individual male laboratory mice (C57BL/6J) for 8 weeks to prepare control mice.

colon cancer model mice = experiment: Colon cancer model mice (AOM/DSS) treatment study; type: in vivo; conditions: oral 1.25 mg/kg/day three times a week from Day 6, dissected on Day 89, versus control
Protocol: Colon cancer model mice were produced by intraperitoneal administration of azoxymethane (AOM) at a dose of 12 mg/kg to laboratory mice on Day 1, and then starting a course consisting of 5-day oral administration of 3% sodium dextran sulfate (DSS) and 16-day no DSS administration, on Day 6, and repeating the course 4 times, to induce colon inflammation and subsequent cancer development.
On Day 89, the colon cancer model mice were dissected to count the number of developed colon cancer tissues and to measure tumor area occupied by a single colon cancer tissue (total tumor area/tumor tissue number).

[3] = tested on: NASH mice (methionine-choline-deficient diet); experiment: NASH treatment study in MCDD-fed NASH mice, liver sections with Azan staining; type: in vivo, mice (C57BL/6J); conditions: NASH mice given a MCDD, 8 weeks; intraperitoneal 2.5 mg/kg/day three times a week; FIG. 3 (C)
Protocol: Next, an animal experiment was performed on NASH mice that were produced by feeding a methionine-choline-deficient diet (MCDD).

[4] = intraperitoneal 2.5 mg/kg/day or oral 5.0 mg/kg/day, three times a week

T1 sequence (Q13526 whole entry): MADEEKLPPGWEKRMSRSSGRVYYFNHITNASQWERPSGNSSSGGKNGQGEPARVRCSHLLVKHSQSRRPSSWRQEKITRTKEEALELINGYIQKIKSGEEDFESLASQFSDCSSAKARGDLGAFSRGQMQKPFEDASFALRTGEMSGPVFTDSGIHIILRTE

Row | Compound | Pin1 inhibition activity (Pin1) | also measured
1 | COc1ccc(-c2cc(C(=O)N[C@H](Cc3ccc4ccccc4c3)C(=O)O)c(C)o2)cc1 [Compound C1, (R)-2-(5-(4-methoxyphenyl)-2-methylfuran-3-carboxamido)-3-(naphthalene-6-yl)propanoic acid] |  | colitis development [1]: prevention of colitis development
2 | COC(=O)c1ccc2cc(C(=O)N[C@H](Cc3ccc4ccccc4c3)C(=O)O)ccc2c1 [Compound H-62] | + | 
3 | O=C(N[C@H](Cc1ccc2ccccc2c1)C(=O)O)OCc1ccccc1 [Compound H-65, reference compound] | − | 
4 | O=C(O)[C@@H](Cc1ccc2ccccc2c1)NC(=O)C1(O)c2ccccc2-c2ccccc21 [Compound H-101] | ++ | 
5 | O=C(CC1c2ccccc2-c2ccccc21)N[C@H](Cc1ccc2ccccc2c1)C(=O)O [Compound H-103] | +++ | 
6 | O=C(N[C@H](Cc1ccc2ccccc2c1)C(=O)O)C1c2ccccc2-c2ccccc21 [Compound H-109] | +++ | 
7 | COC(=O)[C@@H](Cc1ccc2ccccc2c1)NC(=O)n1c2ccccc2c2ccccc21 [Compound H-144] |  | tumor size growth, first tumor (tumor volume ratio) (DU145 cells): suppressed; tumor size growth, second tumor (volume) (DU145 cells): suppressed; increase in liver weight [2, 4]: significantly reduced; blood ALT (GPT) value, index of liver inflammation [2, 4]: decreased
8 | O=C(O)[C@@H](Cc1ccc2ccccc2c1)NC(=O)N(c1ccccc1)c1ccccc1 [Compound H-161] | ++ | 
9 | O=C(O)[C@@H](Cc1ccc2ccccc2c1)NC(=O)n1c2ccccc2c2ccccc21 [Compound H-163] | ++ | tumor size growth, first tumor (tumor volume ratio) (DU145 cells): suppressed; tumor size growth, second tumor (volume) (DU145 cells): suppressed; number of colon cancer tissues (colon cancer model mice): no significant difference; tumor area occupied by a single colon cancer tissue (colon cancer model mice; FIG. 5): reduction in tumor area; fat accumulation in liver tissue (microscopic observation) [3]: significantly reduced fat accumulation; hepatic fibrosis (Azan staining) [3]: significantly inhibited; increase in liver weight [2, 4]: significantly reduced; blood ALT (GPT) value, index of liver inflammation [2, 4]: decreased; fat accumulation in liver tissue (microscopic observation) ([2]; NASH mice given a HFDT, FIG. 2 (C)): significantly reduced fat accumulation
10 | O=C(O)[C@@H](Cc1ccc2ccccc2c1)NC(=O)N1c2ccccc2CCc2ccccc21 [Compound H-178] | +++ | 
11 | O=C(Cn1c2ccccc2c2ccccc21)N[C@H](Cc1ccc2ccccc2c1)C(=O)O [Compound H-536] | + | 
12 | O=C1C=CC(=O)c2c(O)cccc21 [Juglone, reference compound] |  | colitis development [1]: prevention of colitis development; increase in liver weight ([2]; oral 5.0 mg/kg/day three times a week): significantly reduced

Now from value to molecule, other results behind:

Row | Pin1 inhibition activity (Pin1) | Compound | also measured
13 | − | O=C(N[C@H](Cc1ccc2ccccc2c1)C(=O)OCc1ccccc1)C1c2ccccc2-c2ccccc21 [Compound H-105] | 
14 | ++ | O=C(Cc1ccc2ccccc2c1)N[C@H](Cc1ccc2ccccc2c1)C(=O)O [Compound H-158] | 
15 | ++ | O=C(O)[C@@H](Cc1ccc2ccccc2c1)NC(=O)N1c2ccccc2Oc2ccccc21 [Compound H-162] | 
16 | + | O=C(O)[C@@H](Cc1ccc2ccccc2c1)NC(=O)N1c2ccccc2C=Cc2ccccc21 [Compound H-164] | 
17 | +++ | O=C(Nc1ccccc1Oc1ccccc1)N[C@H](Cc1ccc2ccccc2c1)C(=O)O [Compound H-334] | 
18 | ++ | O=C(Nc1ccc(C(=O)c2ccccc2)cc1)N[C@H](Cc1ccc2ccccc2c1)C(=O)O [Compound H-341] | 
19 | + | COC(=O)[C@@H](Cc1ccc2ccccc2c1)NC(=O)Cn1c2ccccc2c2ccccc21 [Compound H-521] | 
